IC50 data for 24 compounds are collected here from patent US20240124478A1, “SPIROCYCLIC-SUBSTITUTED 6,7-DIHYDRO-PYRANO[2,3-d]PYRIMIDINE INHIBITORS OF KRAS G12C MUTANT” (Merck Sharp & Dohme LLC, priority 2020, published 2024).

Where two headings read alike, the source gives them in different places.

In test [1] the target is recombinant biotinylated KRAS protein containing G12C/C51S/C80L/C118S mutations (Biotinylated KRAS G12C protein) (Homo sapiens (Human), UniProt P01116, C118S/C51S/C80L/G12C). The test is described as follows: SOS-catalyzed nucleotide exchange assay (TR-FRET). Format: biochemical. The following applies: apparent potency; preincubation time of 60 minutes prior to addition of SOS. The protocol:
The SOS-catalyzed nucleotide exchange assay utilizes a preformed complex of recombinant biotinylated KRAS protein containing G12C/C51S/C80L/C118S mutations (183 amino acids; biotin on K10; leader sequence which is an AviTag; referred to as SEQ ID NO: 1 or “Biotinylated KRAS G12C protein” hereafter), Bodipy-GDP, and Terbium-streptavidin. Compounds are added to this complex and then after 60 minutes incubation time, the mixture is treated with recombinant SOS protein and unlabeled GTP. Small molecule inhibitors stabilize the Bodipy-GDP complex whereas the untreated protein rapidly exchanges Bodipy-GDP for unlabeled GTP resulting in reduced TR-FRET signal.
Biotinylated KRAS G12C protein (SEQ ID NO: 1) is diluted to 2 μM in an EDTA buffer (20 mM HEPES, 150 mM sodium chloride, 10 mM EDTA, and 0.01% Tween) and incubated at room temperature for one hour. This mixture is then further diluted to 90 nM in an assay buffer (20 mM HEPES, 150 mM sodium chloride, 10 mM magnesium chloride, and 0.005% Tween) containing 15 nM of Terbium-Streptavidin (Invitrogen, catalog #PV3577) and 900 nM of Bodipy-GDP and incubated at room temperature for six hours. This solution is referred to as Biotinylated KRAS G12C mixture.
Each test compound (10 mM stock in DMSO) is diluted in DMSO to make a 10-point, 3-fold dilution series in a 384-well low dead volume microplate (Labcyte, catalog #LP-0200). Once titrations are made, 10 nL of the diluted compounds is acoustically dispensed into a 384-well plate (Corning, catalog #3820) using an Echo 550 (Labcyte).
Each well of the plate receives 3 μL Biotinylated KRAS G12C mixture that had been incubating for six hours and 3 μL of assay buffer using a BioRAPTR (Beckman Coulter) and is incubated at room temperature for 60 minutes. Each well then receives 3 μL of 240 nM recombinant human SOS protein and 9 mM GTP (Sigma, G8877) in assay buffer and is incubated at room temperature for 60 minutes.
The time-resolved fluorescence resonance energy transfer signal of the plate is measured on an Envision (PerkinElmer) plate reader: Excitation filter=340 nm; emission1=495 nm; emission2=520 nm; dichroic mirror=D400/D505; delay time=100 μs. The signal of each well is determined as the ratio of the emission at 520 nm to that at 495 nm. Percent effect of each well is determined after normalization to control wells containing DMSO (no effect) or a saturating concentration of inhibitor (max effect). The apparent effect as a function of compound concentration is fit to a four parameter logistic equation.
In general terms: In TR-FRET formats the signal depends on donor and acceptor labels being close together.

The subject of a further test is NCI-H358 cells. The test is described as follows: Cellular phospho-ERK assay. It is filed as cell-based. The following applies: 2 hour incubation, ratio of p-Erk vs total Erk, read-out: IC50 (nM) pERK (Cell). How it is done:
NCI-H358 cells (ATCC® CRL-5807™) were cultured in T150 flask in growth medium (RPMI medium 1640-(ThermoFisher Scientific 61870) containing 10% fetal bovine serum (ThermoFisher Scientific 10091148)). The cells were harvested in growth medium after TrypLE (ThermoFisher scientific 12604021) digestion and were seeded in 384-well collagen coated cell culture plate (Corning 356702) at a density of 15,000 cells/well, and incubated at 37° C., 5% CO2 overnight. The compound dose-response titrations were prepared and appropriate amounts of compounds were dispensed in a 384-well intermediate plate using an Echo 550 liquid handler. RPMI medium 1640-GlutaMAX™-I were added to the intermediate plate and transferred to 384-well cell culture plate, which was incubated at 37° C., 5% CO2 for 2 hours. After removal of medium from the plate, cells were lysed in lysis buffer from SureFire® Ultra™ Multiplex p-Erk and total Erk assay kit (PerkinElmer MPSU-PTERK) containing Halt™ Protease and Phosphotase inhibitor cocktail (ThermoFisher Scientific 78446) at room temperature with constant shaking at 300 rpm for 30 minutes. The cell lysates were then transferred to OptiPlate-384 plate (PerkinElmer 6005620) and the phosphorylation of Erk and total Erk levels were detected by Alpha SureFire Ultra Multiplex p-Erk kit PerkinElmer MPSU-PTERK) following the manufacturer's protocol. Assay plates were read on an EnVision Multimode Plate Reader (PerkinElmer), and the ratio of p-Erk vs total Erk in each well was used as the final readout. Dose response curves were analyzed using a 4-parameter logistic model to calculate IC50 values using spotfire software.

Sequence of recombinant biotinylated KRAS protein containing G12C/C51S/C80L/C118S mutations (Biotinylated KRAS G12C protein) (P01116 other isoform, or with tags, fused parts or gaps, stated change not applied): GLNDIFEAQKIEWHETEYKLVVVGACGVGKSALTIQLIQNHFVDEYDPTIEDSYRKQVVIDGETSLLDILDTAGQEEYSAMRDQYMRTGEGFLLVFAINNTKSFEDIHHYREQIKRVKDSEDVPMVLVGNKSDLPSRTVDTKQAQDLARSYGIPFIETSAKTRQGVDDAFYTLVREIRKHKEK

A word on the IC50: it is the concentration needed to halve the response being measured. Regarding `C=CC(=O)N1CCN(c2nc(OC[C@@H]3CCCN3CC)nc3c2CCC2(CCCc4ccccc42)O3)C[C@@H]1CC#N` (single isomer, unassigned) [Example 15b], the IC50 was found to be 84 nM in test [1] and 1810 nM in the test on NCI-H358 cells.

For the compound `C=CC(=O)N1CCN(c2nc(OC[C@@H]3CC(F)(F)CN3C)nc3c2CCC2(CCCc4ccccc42)O3)C[C@@H]1CC#N` (single isomer, unassigned) [Example 16a], the IC50 in test [1] came out at 18.9 nM; in the test with NCI-H358 cells, 246 nM.

Regarding `C=CC(=O)N1CCN(c2nc(OC[C@@H]3CC(F)(F)CN3C)nc3c2CCC2(CCCc4ccccc42)O3)C[C@@H]1CC#N` (single isomer, unassigned) [Example 16b], the results for the IC50 (in test [1]; in the test on NCI-H358 cells) were 109 nM and 1650 nM, respectively.

Take `C=C(F)C(=O)N1CCN(c2nc(OC[C@@H]3CCCN3C)nc3c2CCC2(CCCc4ccccc42)O3)C[C@@H]1CC#N` (single isomer, unassigned) [Example 17a]: the IC50 in test [1] came out at 823 nM; in the test on NCI-H358 cells (Homo sapiens, NCI-H358, 2 h), 6680 nM.

With `C=CC(=O)N1CCN(c2nc(C(N)=O)nc3c2CCC2(CCCc4ccccc42)O3)C[C@@H]1CC#N` (single isomer, unassigned) [Example 18b], the IC50 in test [1] came to 268 nM; in the test with NCI-H358 cells (Homo sapiens, NCI-H358, 2 h) it was 1520 nM.

Take `C=CC(=O)N1CCN(c2nc(C(=O)N[C@H](C)CN(C)C)nc3c2CCC2(CCCc4cccc(C)c42)O3)CC1` (single isomer, unassigned) [Example 19a]: the IC50 in test [1] turned out to be 8470 nM; in the test on NCI-H358 cells (Homo sapiens, NCI-H358, 2 h), 30000 nM.

Turning to `C=CC(=O)N1CCN(c2nc(N3CC(N(C)C)C3)nc3c2CCC2(CCCc4ccccc42)O3)C[C@@H]1CC#N` (single isomer, unassigned) [Example 20a], the IC50 was 41.8 nM in test [1] and 1470 nM in the test with NCI-H358 cells (Homo sapiens, NCI-H358, 2 h).

In the case of `C=CC(=O)N1CCN(c2nc(N3CC(N(C)C)C3)nc3c2CCC2(CCCc4ccccc42)O3)C[C@@H]1CC#N` (single isomer, unassigned) [Example 20b], the IC50 in test [1] came out at 80.4 nM; in the test with NCI-H358 cells it was 2760 nM.

As for `C=CC(=O)N1CCN(c2nc(OC[C@@H]3CCCN3C)nc3c2CCC2(CCCc4ccccc42)O3)CC1` (single isomer, unassigned) [Example 21a], the IC50 came out at 5340 nM in test [1] and 10200 nM in the test with NCI-H358 cells (Homo sapiens, NCI-H358, 2 h).

Turning to `C=CC(=O)N1CCN(c2nc(OC[C@@H]3CCCN3C)nc3c2CCC2(CCc4ccccc42)O3)CC1` (single isomer, unassigned) [Example 22a], the IC50 in test [1] is 6320 nM; with NCI-H358 cells (Homo sapiens, NCI-H358, 2 h), 24600 nM.

Regarding `C=CC(=O)N1CCN(c2nc(OC[C@@H]3CCCN3C)nc3c2CCC2(CCCc4cccc(Cl)c42)O3)CC1` (single isomer, unassigned) [Example 23a], the IC50 was 5070 nM in test [1] and 26500 nM with NCI-H358 cells (Homo sapiens, NCI-H358, 2 h).

As to `C=CC(=O)N1CCN(c2nc(OC[C@@H]3CCCN3C)nc3c2CCC2(CCCc4cccc(C)c42)O3)CC1` (single isomer, unassigned) [Example 24a], the IC50 was 2390 nM in test [1] and 12900 nM with NCI-H358 cells (Homo sapiens, NCI-H358, 2 h).

As for `C=CC(=O)N1CCN(c2nc(OC[C@@H]3CCCN3C)nc3c2CCC2(CC(C)c4ccccc42)O3)C[C@@H]1CC#N` (single isomer, unassigned) [Example 25a], the values for the IC50 (in test [1]; in the test with NCI-H358 cells) were 14.2 nM and 1100 nM, respectively.

As to `C=CC(=O)N1CCN(c2nc(OC[C@@H]3CCCN3C)nc3c2CCC2(CC(C)c4ccccc42)O3)C[C@@H]1CC#N` (single isomer, unassigned) [Example 25b], the figures for the IC50 (in test [1]; in the test with NCI-H358 cells) were 11.6 nM and 2740 nM, respectively.

`C=CC(=O)N1CCN(c2nc(OC[C@@H]3CCCN3C)nc3c2CCC2(CC(C)c4ccccc42)O3)C[C@@H]1CC#N` (single isomer, unassigned) [Example 25c]: the results for the IC50 (in test [1]; in the test on NCI-H358 cells) were 253 nM and 11000 nM, respectively.

Take `C=CC(=O)N1CCN(c2nc(OC[C@@H]3CCCN3C)nc3c2CCC2(CC(C)c4ccccc42)O3)C[C@@H]1CC#N` (single isomer, unassigned) [Example 25d]: the 50% inhibitory concentration (IC50) in test [1] was 113 nM; with NCI-H358 cells it was 8130 nM.

As to `C=CC(=O)N1CCN(c2nc(OC[C@@H]3CCCN3C)nc3c2CCC2(O3)c3ccccc3CC2(C)C)C[C@@H]1CC#N` (single isomer, unassigned) [Example 27a], the IC50 stood at 1080 nM in test [1] and 30000 nM with NCI-H358 cells (Homo sapiens, NCI-H358, 2 h).

On to `C=CC(=O)N1CCN(c2nc(OC[C@@H]3CCCN3C)nc3c2CCC2(O3)c3ccccc3CC2(C)C)C[C@@H]1CC#N` (single isomer, unassigned) [Example 27b], for which the IC50 was determined as 4490 nM in test [1] and 28600 nM with NCI-H358 cells.

Turning to `C=CC(=O)N1CCN(c2nc(OC[C@@H]3CCCN3C)nc3c2CCC2(CCc4c2ccc2[nH]ncc42)O3)C[C@@H]1CC#N` (single isomer, unassigned) [Example 28a], the IC50 in test [1] was 7840 nM; in the test with NCI-H358 cells (Homo sapiens, NCI-H358, 2 h), more than 30000 nM.

As for `C=CC(=O)N1CCN(c2nc(OC[C@@H]3CCCN3C)nc3c2CCC2(CCc4c2ccc2[nH]ncc42)O3)C[C@@H]1CC#N` (single isomer, unassigned) [Example 28b], the IC50 in test [1] came out at 2330 nM; in the test on NCI-H358 cells, 29400 nM.

In the case of `C=CC(=O)N1CCN(c2nc(OC[C@@H]3CCCN3C)nc3c2CCC2(CCCc4ccccc42)O3)[C@@H](C)C1` (stereo partly drawn) [Example 13a, 1-((3S)-3-methyl-4-(2′-(((S)-1-methylpyrrolidin-2-yl)methoxy)-3,4,5′,6′-tetrahydro-2H-spiro[naphthalene-1,7′-pyrano[2,3-d]pyrimidin]-4′-yl)piperazin-1-yl)prop-2-en-1-one], the IC50 was 576 nM in test [1] and 4980 nM in the test on NCI-H358 cells (Homo sapiens, NCI-H358, 2 h).

Turning to `C=CC(=O)N1CCN(c2nc(OC[C@@H]3CCCN3C)nc3c2CCC2(CCCc4ccccc42)O3)C[C@H]1C` (stereo partly drawn) [Example 14a, 1-((2R)-2-methyl-4-(2′-(((S)-1-methylpyrrolidin-2-yl)methoxy)-3,4,5′,6′-tetrahydro-2H-spiro[naphthalene-1,7′-pyrano[2,3-d]pyrimidin]-4′-yl)piperazin-1-yl)prop-2-en-1-one], the IC50 in test [1] turned out to be 2080 nM; in the test with NCI-H358 cells (Homo sapiens, NCI-H358, 2 h) it was 4200 nM.

For the compound `C=CC(=O)N1CCN(c2nc(OC[C@@H]3CCCN3C)nc3c2CCC2(Cc4ccccc4C2)O3)C[C@@H]1CC#N` [Example 29, 2-((S)-1-acryloyl-4-(2′-(((S)-1-methylpyrrolidin-2-yl)methoxy)-1,3,5′,6′-tetrahydrospiro[indene-2,7′-pyrano[2,3-d]pyrimidin]-4′-yl)piperazin-2-yl)acetonitrile], the 50% inhibitory concentration (IC50) stood at 5010 nM in test [1] and 19200 nM in the test on NCI-H358 cells (Homo sapiens, NCI-H358, 2 h).

For `C=CC(=O)N1CCN(c2nc(OC[C@@H]3CCCN3C)nc3c2CCC2(O3)c3ccccc3-c3ccccc32)C[C@@H]1CC#N` [Example 30, 2-((S)-1-acryloyl-4-(2′-(((S)-1-methylpyrrolidin-2-yl)methoxy)-5′,6′-dihydrospiro[fluorene-9,7′-pyrano[2,3-d]pyrimidin]-4′-yl)piperazin-2-yl)acetonitrile], the IC50 in test [1] stood at 68.6 nM; in the test on NCI-H358 cells (Homo sapiens, NCI-H358, 2 h) it was 1290 nM.
